Data as given in US10961238B2, “Modulators of hedgehog (Hh) signaling pathway” (E-THERAPEUTICS PLC, priority 2016, dated 2021).

What follows are compounds tested on C3H10T1/2 cells (assay: C3H assay: differentiation of C3H10T1/2 cells by mSHH, measurement of alkaline phosphatase). Conditions: Mus musculus, C3H 10T1/2, 72 h, read-out: IC50 Ranges.
Type: cell-based, mouse

| SMILES | IC50 [nM] |
| --- | --- |
| C[C@@H]1CN(C(=O)N2CC(S(=O)(=O)N3CCC(c4c[nH]c5ncccc45)CC3)C2)C[C@H](C)O1 [Compound 170] | 10 to 100 |

Same assay, conditions: Mus musculus, C3H 10T1/2; C3H10T1/2 cells stimulated with mSHH for 72 hours; alkaline phosphatase activity; read-out: IC50 Ranges

| IC50 [nM] | SMILES |
| --- | --- |
| 100 to 1000 | COC(=O)c1cnc(N2CC(S(=O)(=O)N3CCC(c4c[nH]c5ncccc45)CC3)C2)o1 [Compound 142, methyl 2-[3-[4-(1H-pyrrolo [2,3-b]pyridin-3-yl)piperidin-1-yl]sulfonylaze-tidin-1-yl]-1,3-oxazole-5-carboxylate] |
| 100 to 1000 | CN(C)CC(C)(C)OC(=O)N1CC(S(=O)(=O)N2CCC(c3ccncc3)CC2)C1 [Compound 144, [1-(dimethylamino)-2-methylpropan-2-yl]3-(4-pyridin-4-ylpiperidin-1-yl)sulfonylaze-tidine-1-carboxylate] |
| 1000 to 10000 | CCN(CC)CC(C)(C)CN1CC(S(=O)(=O)N2CCC(c3c[nH]c4ncccc34)CC2)C1 [Compound 145, N,N-diethyl-2,2-dimethyl-3-[3-[4-(1H-pyrrolo[2,3-b]pyridin-3-yl)piperidin-1-yl]sulfonylaze-tidin-1-yl]propan-1-amine] |
| 1000 to 10000 | CC(C)(CN1CCOCC1)CN1CC(S(=O)(=O)N2CCC(c3c[nH]c4ncccc34)CC2)C1 [Compound 146] |
| 1000 to 10000 | CC(C)C(C(C)C)N1CC(S(=O)(=O)N2CCC(c3c[nH]c4ncccc34)CC2)C1 [Compound 148, 3-[1-[1-(2,4-dimethylpentan-3-yl)azetidin-3-yl]sulfonylpiper-idin-4-yl]-1H-pyrrolo[2,3-b]pyridine] |
| 100 to 1000 | COC(=O)N1CC(S(=O)(=O)N2CCC(c3c[nH]c4ncccc34)CC2)C1 [Compound 151, methyl 3-[4-(1H-pyrrolo [2,3-b]pyridin-3-yl)piperidin-1-yl]sulfonylaze-tidine-1-carboxylate] |
| < 10 | COCC(C)(C)OC(=O)N1CC(S(=O)(=O)N2CCC(c3c[nH]c4ncccc34)CC2)C1 [Compound 152, (1-methoxy-2-methylpropan-2-yl) 3-[4-(1H-pyrrolo[2,3-b]pyridin-3-yl)piperidin-1-yl]sulfonylaze-tidine-1-carboxylate] |
| 10 to 100 | CC[C@H](C)OC(=O)N1CC(S(=O)(=O)N2CCC(c3c[nH]c4ncccc34)CC2)C1 [Compound 153, [(2S)-butan-2-yl] 3-[4-(1H-pyrrolo[2,3-b]pyridin-3-yl)piperidin-1-yl]sulfonylaze-tidine-1-carboxylate] |
| 100 to 1000 | O=S(=O)(C1CN(c2ncccn2)C1)N1CCC(c2c[nH]c3ncccc23)CC1 [Compound 155, 3-[1-(1-pyrimidin-2-ylazetidin-3-yl)sulfonylpiper-idin-4-yl]-1H-pyrrolo[2,3-b]pyridine] |
| < 10 | CCN(C(=O)N1CC(S(=O)(=O)N2CCC(c3c[nH]c4ncccc34)CC2)C1)C(C)(C)C [Compound 156, N-tert-butyl-N-ethyl-3-[4-(1H-pyrrolo[2,3-b]pyridin-3-yl)piperidin-1-yl]sulfonylaze-tidine-1-carboxamide] |
| 1000 to 10000 | O=S(=O)(C1CN(Cc2cccnc2)C1)N1CCC(c2c[nH]c3ncccc23)CC1 [Compound 157, 3-[1-[1-(pyridin-3-ylmethyl)azetidin-3-yl]sulfonylpiper-idin-4-yl]-1H-pyrrolo[2,3-b]pyridine] |
| 1000 to 10000 | O=S(=O)(C1CN(C2CCCC2)C1)N1CCC(c2c[nH]c3ncccc23)CC1 [Compound 158] |
| 1000 to 10000 | CC1(CN2CC(S(=O)(=O)N3CCC(c4c[nH]c5ncccc45)CC3)C2)COC1 [Compound 159, 3-[1-[1-[(3-methyloxetan-3-yl)methyl]azetidin-3-yl]-sulfonylpiper-idin-4-yl]-1H-pyrrolo[2,3-b]pyridine] |
| 10 to 100 | O=C(OC[C@@H]1CCCO1)N1CC(S(=O)(=O)N2CCC(c3c[nH]c4ncccc34)CC2)C1 [Compound 163, [(2S)-oxolan-2-yl]methyl 3-[4-(1H-pyrrolo[2,3-b]pyridin-3-yl)piperidin-1-yl]sulfonylaze-tidine-1-carboxylate] |
| 10 to 100 | C[C@@H]1CN(C(=O)N2CC(S(=O)(=O)N3CCC(c4c[nH]c5ncccc45)CC3)C2)C[C@@H](C)O1 [Compound 164, [(2R,6R)-2,6-dimethylmorpholin-4-yl]-[3-[4-(1H-pyrrolo[2,3-b]pyridin-3-yl)piperidin-1-yl]sulfonylaze-tidin-1-yl]methanone] |
| 100 to 1000 | C[C@H]1COC[C@H](C)N1C(=O)N1CC(S(=O)(=O)N2CCC(c3c[nH]c4ncccc34)CC2)C1 [Compound 165, [(3S,5S)-3,5-dimethylmorpholin-4-yl]-[3-[4-(1H-pyrrolo[2,3-b]pyridin-3-yl)piperidin-1-yl]sulfonylaze-tidin-1-yl]methanone] |
| 1000 to 10000 | CN(C)C(=O)N1CC(S(=O)(=O)N2CCC(c3c[nH]c4ncccc34)CC2)C1 [Compound 167, N,N-dimethyl-3-[4-(1H-pyrrolo[2,3-b]pyridin-3-yl)piperidin-1-yl]sulfonylaze-tidine-1-carboxamide] |

| IC50 [nM] | SMILES |
| --- | --- |
| 10 to 100 | CC1(C)COCC(C)(C)N1C(=O)N1CC(S(=O)(=O)N2CCC(c3c[nH]c4ncccc34)CC2)C1 [Compound 169, [3-[4-(1H-pyrrolo[2,3-b]pyridin-3-yl)piperidin-1 yl]sulfonylaze-tidin-1-yl]-(3,3,5,5-tetramethylmorpholin-4-yl)methanone] |
| 10 to 100 | CC(C)(C)OC(=O)N1CCN(S(=O)(=O)N2CC(S(=O)(=O)N3CCC(c4c[nH]c5ncccc45)CC3)C2)CC1 [Compound 172, tert-butyl 4-[3-[4-(1H-pyrrolo[2,3-b]pyridin-3-yl)piperidin-1-yl]sulfonylaze-tidin-1-yl] sulfonylpiper-azine-1-carboxylate] |
| 100 to 1000 | CC(C)N(C(=O)N1CC(S(=O)(=O)N2CCC(c3c[nH]c4ncccc34)CC2)C1)C(C)C [Compound 173, N,N-Diisopropyl-3-[[4-(1H-pyrrolo[2,3-b]pyridin-3-yl)-1-piperidyl]sulfonyl]azetidine-1-carboxamide] |
| < 10 | CN(C(=O)N1CC(S(=O)(=O)N2CCC(c3c[nH]c4ncccc34)CC2)C1)C(C)(C)C [Compound 176, N-tert-butyl-N-methyl-3-[4-(1H-pyrrolo[2,3-b]pyridin-3-yl)piperidin-1-yl]sulfonylaze-tidine-1-carboxamide] |
| 10 to 100 | CN(Cc1ccco1)C(=O)N1CC(S(=O)(=O)N2CCC(c3c[nH]c4ncccc34)CC2)C1 [Compound 178, N-(2-Furylmethyl)-N-methyl-3-[[4-(1H-pyrrolo[2,3-b]pyridin-3-yl)-1-piperidyl]sulfonyl]azetidine-1-carboxamide] |
| 10 to 100 | CC(C)NC(=S)N1CC(S(=O)(=O)N2CCC(c3c[nH]c4ncccc34)CC2)C1 [Compound 179, N-propan-2-yl-3-[4-(1H-pyrrolo[2,3-b]pyridin-3-yl)piperidin-1-yl]sulfonylaze-tidine-1-carbo-thioamide] |
| 10 to 100 | COC1CCC(OC(=O)N2CC(S(=O)(=O)N3CCC(c4c[nH]c5ncccc45)CC3)C2)CC1 (stereo not drawn) [Compound 180, (4-methoxycyclohexyl) 3-[4-(1H-pyrrolo[2,3-b]pyridin-3-yl)piperidin-1-yl]sulfonylaze-tidine-1-carboxylate] |
| 10 to 100 | O=S(=O)(C1CN(c2ncccc2C2CC2)C1)N1CCC(c2c[nH]c3ncccc23)CC1 [Compound 181, 3-[1-[1-(3-cyclopropylpy-ridin-2-yl)azetidin-3-yl]sulfonylpiper-idin-4-yl]-1H-pyrrolo[2,3-b]pyridine] |
| 10 to 100 | O=S(=O)(C1CN(c2ncccc2CO)C1)N1CCC(c2c[nH]c3ncccc23)CC1 [Compound 182, [2-[3-[4-(1H-pyrrolo[2,3-b]pyridin-3-yl)piperidin-1-yl]sulfonylaze-tidin-1-yl]pyridin-3-yl]methanol] |
| 100 to 1000 | O=C(Oc1ccccc1O)N1CC(S(=O)(=O)N2CCC(c3c[nH]c4ncccc34)CC2)C1 [Compound 183, (2-hydroxyphenyl) 3-[4-(1H-pyrrolo[2,3-b]pyridin-3-yl)piperidin-1-yl]sulfonylaze-tidine-1-carboxylate] |
| 100 to 1000 | O=S(=O)(C1CN(c2nc(C(F)(F)F)ccc2C(F)(F)F)C1)N1CCC(c2c[nH]c3ncccc23)CC1 [Compound 184, 3-[1-[1-[3,6-bis(trifluoromethyl)pyridin-2-yl]azetidin-3-yl]sulfonylpiper-idin-4-yl]-1H-pyrrolo[2,3-b]pyridine] |
| 100 to 1000 | COc1ccc(C(F)(F)F)c(N2CC(S(=O)(=O)N3CCC(c4c[nH]c5ncccc45)CC3)C2)n1 [Compound 185, 3-[1-[1-[6-methoxy-3-(trifluoromethyl)pyridin-2-yl]azetidin-3-yl]sulfonylpiper-idin-4-yl]-1H-pyrrolo[2,3-b]pyridine] |
| 100 to 1000 | O=S(=O)(C1CN(c2ncccc2C(F)(F)F)C1)N1CCC(c2c[nH]c3ncccc23)CC1 [Compound 186, 3-[1-[1-[3-(trifluoromethyl)pyridin-2-yl]azetidin-3-yl]sulfonylpiper-idin-4-yl]-1H-pyrrolo [2,3-b]pyridine] |
| 100 to 1000 | Cc1ccnc(N2CC(S(=O)(=O)N3CCC(c4c[nH]c5ncccc45)CC3)C2)c1C#N [Compound 187, 4-methyl-2-[3-[4-(1H-pyrrolo[2,3-b]pyridin-3-yl)piperidin-1-yl]sulfonylaze-tidin-1-yl]pyridine-3-carbonitrile] |
| 10 to 100 | O=C(C1CCCCC1)N1CC(S(=O)(=O)N2CCC(c3c[nH]c4ncccc34)CC2)C1 [Compound 189, Cyclohexyl-[3-[[4-(1H-pyrrolo[2,3-b]pyridin-3-yl)-1-piperidyl]sulfonyl]azetidin-1-yl]methanone] |
| 10 to 100 | O=C(C1CCCC1)N1CC(S(=O)(=O)N2CCC(c3c[nH]c4ncccc34)CC2)C1 [Compound 190, cyclopentyl-[3-[4-(1H-pyrrolo[2,3-b]pyridin-3-yl)piperidin-1-yl]sulfonylaze-tidin-1-yl]methanone] |
| 100 to 1000 | O=C(C1CC1)N1CC(S(=O)(=O)N2CCC(c3c[nH]c4ncccc34)CC2)C1 [Compound 191, cyclopropyl-[3-[4-(1H-pyrrolo[2,3-b]pyridin-3-yl)piperidin-1-yl]sulfonylaze-tidin-1-yl]methanone] |

| SMILES | IC50 [nM] |
| --- | --- |
| O=C(OC1CCCCC1)N1CC(S(=O)(=O)N2CCC(c3coc4cccnc34)CC2)C1 [Compound 141, Cyclohexyl 3-[(4-furo[3,2-b]pyridin-3-yl-1-piperidyl)sulfonyl]azetidine-1-carboxylate] | 10 to 100 |
